Measurements: US20240059655A1, “HETEROCYCLIC G-PROTEIN-COUPLED RECEPTOR 52 (GPR52) AGONISTS” (Board of Regents, The University of Texas System, priority 2020, published 2024)
“Also recorded” adds a separate entry of the source.

How the values were obtained:
[1] = biological target: hERG potassium channel (Homo sapiens (Human), UniProt Q12809); experiment: NIMH-PDSP broad-panel counter screening (binding)
[2] = biological target: 5-HT2C (Homo sapiens (Human), UniProt P28335); experiment: NIMH-PDSP broad-panel counter screening (binding)
[3] = biological target: human GPR52 (Homo sapiens (Human), UniProt Q9Y2T5); experiment: Glosensor cAMP assay in HEK293 cells transiently expressing human GPR52; assay type: cell-based; settings: relative to compound 4 as 100% and 0.5% DMSO as 0%, mean ± SEM, "—" not detected
[4] = tested on: C57/BL6 mice; experiment: Locomotor activity and amphetamine-induced hyperlocomotion in mice; settings: P<0.05 vs vehicle; for AMPH-induced horizontal activity, first 30 min after AMPH: AMPH 3 mg/kg IP
[5] = Brain permeability in rats; assay type: in vivo; settings: male, Sprague-Dawley, brain/plasma, rat, IV 10 mg/kg, read-out: Brain/Plasma Ratio
Procedure: In Vivo PK and Brain Permeability Studies. Male Sprague-Dawley rats (n=3 per treatment group; […] Rats were randomly assigned to treatment groups. […] The rat was restrained manually at the designated time points (0.08, 0.25, 0.5, 1.0, 2.0, 4.0, 8.0, and 24 h post-dosing for IV; 0.25, 0.5, 1.0, 2.0, 4.0, 8.0, and 24 h post-dosing for PO). 100 μL of blood (yielding ˜50 μL of plasma) samples are taken from the animal's jugular vein and placed into micro K2EDTA tubes. Blood samples were placed on ice and centrifuged at 8000 rpm for 5 min at 4° C. to generate plasma sample within 0.5 h of collection. Brain samples were collected at 0.25 and 1 h post-dosing. All samples were stored at −20° C. The concentration of 12c in each sample was analyzed by Sundia MediTech Co., Ltd. The study and the related standard operating procedures were reviewed and approved by the Sundia Institutional Animal Care and Use Committee. The Sundia animal facility is approved with yearly inspection by the Shanghai Laboratory Animal Management Committee. All treatment assignments were blinded to investigators who performed PK assays and end point statistical analyses.

[6] = tested on: HEK293 cells lacking GPR52; experiment: cAMP Glosensor control in HEK293 cells lacking GPR52 (empty vector); settings: HEK293 cells with empty vector, 0.1 nM-10 μM
[7] = In vivo PK in rats; settings: rat; for AUC(0-inf): mean ± SEM
Procedure: In Vivo PK and Brain Permeability Studies. […] 100 μL of blood (yielding ˜50 μL of plasma) samples are taken from the animal's jugular vein and placed into micro K2EDTA tubes. Blood samples were placed on ice and centrifuged at 8000 rpm for 5 min at 4° C. to generate plasma sample within 0.5 h of collection. Brain samples were collected at 0.25 and 1 h post-dosing. All samples were stored at −20° C. […] The Sundia animal facility is approved with yearly inspection by the Shanghai Laboratory Animal Management Committee. All treatment assignments were blinded to investigators who performed PK assays and end point statistical analyses. […] The peak concentration (Cmax) was directly obtained by visual inspection of the plasma concentration-time profile. The elimination rate constant (λ) was obtained by the least-squares fitted terminal log-linear portion of the slope of the plasma concentration-time profile. […] The area under the plasma concentration-time curve from 0 to time t (AUC0-t) was evaluated using the linear trapezoidal rule and further extrapolated to infinity (AUC0-∞) according to the following equation: AUC0-∞=AUC0-t+Clast/λ. The pharmacokinetic parameters were presented as mean±SEM.

[8] = tested on: GABAA; experiment: NIMH-PDSP broad-panel counter screening (binding); settings: mean percent inhibition of binding
[9] = male, Sprague-Dawley, plasma, IV 10 mg/kg
[10] = male, Sprague-Dawley, plasma, PO 20 mg/kg

Sequence of human GPR52 (Q9Y2T5 whole entry): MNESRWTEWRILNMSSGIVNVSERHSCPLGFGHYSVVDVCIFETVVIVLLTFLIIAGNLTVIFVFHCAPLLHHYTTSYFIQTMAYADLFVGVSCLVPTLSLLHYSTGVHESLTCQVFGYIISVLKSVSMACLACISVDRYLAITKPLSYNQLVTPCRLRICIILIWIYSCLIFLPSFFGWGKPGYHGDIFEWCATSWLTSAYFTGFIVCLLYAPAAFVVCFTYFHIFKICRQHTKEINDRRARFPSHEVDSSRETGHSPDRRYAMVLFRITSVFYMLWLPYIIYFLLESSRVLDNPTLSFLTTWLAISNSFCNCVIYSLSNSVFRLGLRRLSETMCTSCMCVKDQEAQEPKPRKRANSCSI
Sequence of hERG potassium channel (Q12809 whole entry): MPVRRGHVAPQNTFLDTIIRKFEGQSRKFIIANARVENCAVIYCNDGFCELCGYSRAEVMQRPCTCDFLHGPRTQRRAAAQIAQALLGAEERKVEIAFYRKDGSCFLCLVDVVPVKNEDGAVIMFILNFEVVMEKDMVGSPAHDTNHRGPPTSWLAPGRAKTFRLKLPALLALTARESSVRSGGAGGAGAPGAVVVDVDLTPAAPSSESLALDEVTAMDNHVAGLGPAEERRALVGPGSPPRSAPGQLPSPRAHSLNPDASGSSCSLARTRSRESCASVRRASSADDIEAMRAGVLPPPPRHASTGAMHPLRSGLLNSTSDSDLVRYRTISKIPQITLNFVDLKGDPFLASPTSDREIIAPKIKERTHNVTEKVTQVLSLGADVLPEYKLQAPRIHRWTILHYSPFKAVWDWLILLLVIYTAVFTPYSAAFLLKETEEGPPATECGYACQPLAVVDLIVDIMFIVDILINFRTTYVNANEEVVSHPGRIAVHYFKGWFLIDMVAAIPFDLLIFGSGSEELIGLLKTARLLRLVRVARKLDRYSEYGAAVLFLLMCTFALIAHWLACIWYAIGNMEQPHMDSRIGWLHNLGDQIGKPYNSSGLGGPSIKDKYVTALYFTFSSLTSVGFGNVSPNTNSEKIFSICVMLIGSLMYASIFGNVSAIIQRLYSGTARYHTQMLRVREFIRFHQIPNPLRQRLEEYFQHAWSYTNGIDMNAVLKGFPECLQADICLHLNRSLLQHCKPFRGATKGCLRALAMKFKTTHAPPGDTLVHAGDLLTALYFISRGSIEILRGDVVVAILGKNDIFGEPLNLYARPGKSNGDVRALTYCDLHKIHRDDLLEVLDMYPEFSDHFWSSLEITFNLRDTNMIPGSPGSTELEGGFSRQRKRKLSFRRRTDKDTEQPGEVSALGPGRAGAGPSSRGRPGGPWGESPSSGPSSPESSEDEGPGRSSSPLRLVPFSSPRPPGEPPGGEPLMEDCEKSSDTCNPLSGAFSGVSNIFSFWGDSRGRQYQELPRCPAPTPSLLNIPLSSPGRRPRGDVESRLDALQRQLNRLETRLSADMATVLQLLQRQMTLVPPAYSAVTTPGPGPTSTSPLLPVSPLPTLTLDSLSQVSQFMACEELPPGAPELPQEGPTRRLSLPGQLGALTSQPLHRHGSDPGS
Sequence of 5-HT2C (P28335 33-458, species assumed): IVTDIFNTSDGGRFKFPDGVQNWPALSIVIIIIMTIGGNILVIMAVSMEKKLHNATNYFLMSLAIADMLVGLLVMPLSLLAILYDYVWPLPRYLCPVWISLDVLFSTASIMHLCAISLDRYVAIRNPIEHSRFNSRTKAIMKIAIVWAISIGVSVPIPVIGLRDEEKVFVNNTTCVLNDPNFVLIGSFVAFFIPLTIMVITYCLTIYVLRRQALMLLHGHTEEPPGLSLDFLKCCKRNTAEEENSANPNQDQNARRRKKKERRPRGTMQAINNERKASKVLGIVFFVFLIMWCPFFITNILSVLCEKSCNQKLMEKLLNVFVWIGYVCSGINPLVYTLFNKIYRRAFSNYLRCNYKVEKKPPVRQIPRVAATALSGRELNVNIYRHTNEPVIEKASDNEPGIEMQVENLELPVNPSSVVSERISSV

O=C(NCCO)c1cccc2c1CCN2c1cc(Cc2cc(F)cc(C(F)(F)F)c2)ncn1 [Compound 12c, 1-(6-(3-Fluoro-5-(trifluoromethyl)benzyl)pyrimidin-4-yl)-N-(2-hydroxyethyl)indoline-4-carboxamide]
hERG potassium channel binding activity ([1]; 10 μM): did not show any | % inhibition (10 μM) ([1]; hERG, mean percent inhibition of binding): 11.04% | Ki [2]: > 10 µM | Emax ([3]; HEK293, cAMP assay, read-out: Emax (%)): 136% | Emax (%) ([3]; cAMP assay): 134% | AMPH-induced horizontal activity, first 30 min after AMPH ([4]; 3 mg/kg IP): suppressed AMPH-induced horizontal activity | horizontal activity/30 min after compound injection ([4]; 3 mg/kg IP): suppressed horizontal activity | AMPH-induced horizontal activity, first 30 min after AMPH ([4]; 10 mg/kg IP): suppressed AMPH-induced horizontal activity | horizontal activity/30 min after compound injection ([4]; 10 mg/kg IP): suppressed horizontal activity | Kp at […] ([5]; 0.25 h): 0.28 | Kp at 1 h ([5]; 1 h): 0.39 | cAMP increase in cells lacking GPR52 [6]: no increase in cAMP; also recorded: did not increase cAMP | Cmax [7, 9]: 6730 ng/mL | clearance [7, 9]: 18.3 mL/min/kg | AUC(0-inf) [7, 9]: 9030 ng·h/mL | Vd ([7]; male, Sprague-Dawley, plasma, IV 10 mg/kg, read-out: Vss): 1.5 L/kg | Cmax [7, 10]: 3410 ng/mL | AUC(0-inf) [7, 10]: 13700 ng·h/mL | bioavailability ([7]; male, Sprague-Dawley, plasma, oral, 20 mg/kg): 76% | CL ([7]; IV 10 mg/kg): 1.1 ± 0.1 L/h/kg | CL ([7]; PO 20 mg/kg): 1.5 ± 0.3 L/h/kg | Vss ([7]; PO 20 mg/kg): 5.5 ± 1.16 L/kg | F (%) ([7]; absolute oral bioavailability, PO 20 mg/kg vs IV 10 mg/kg): 76 ± 15% | % inhibition (10 μM) [8]: 5.98%
